According to PMC4501319, “Discovery of Selective Small-Molecule Activators of a Bacterial Glycoside Hydrolase” (Angewandte Chemie (International Ed. in English), 2014):
Where “and” joins values, the source holds several entries; their conditions need not be identical. Identical values can stand only once.

Experiments:
BtGH84 [1] = target: T1, BtGH84 (Bacteroides thetaiotaomicron, UniProt Q89ZI2); experiment: 4MU-GlcNAc cleavage assay (fluorescent kinetic enzyme activity assay); assay type: biochemical; conditions: for Vmax(app): Michaelis–Menten fit, 1 % DMSO, substrate 50 μM to 2 mM, activator concentration 2 mM; for Kd: affinity of activator to the substrate-bound enzyme, read-out: αKA; for Vmax / α / β: non-essential activator equation fit to covariation experiments; for Vmax: activator 50 µM to 2 mM; for α: modifies KM; for β: modifies Vmax/kcat; for Emax: read-out: Maximum activation
T1 construct: made in house
T1 sequence (Q89ZI2 22-737, change not shown): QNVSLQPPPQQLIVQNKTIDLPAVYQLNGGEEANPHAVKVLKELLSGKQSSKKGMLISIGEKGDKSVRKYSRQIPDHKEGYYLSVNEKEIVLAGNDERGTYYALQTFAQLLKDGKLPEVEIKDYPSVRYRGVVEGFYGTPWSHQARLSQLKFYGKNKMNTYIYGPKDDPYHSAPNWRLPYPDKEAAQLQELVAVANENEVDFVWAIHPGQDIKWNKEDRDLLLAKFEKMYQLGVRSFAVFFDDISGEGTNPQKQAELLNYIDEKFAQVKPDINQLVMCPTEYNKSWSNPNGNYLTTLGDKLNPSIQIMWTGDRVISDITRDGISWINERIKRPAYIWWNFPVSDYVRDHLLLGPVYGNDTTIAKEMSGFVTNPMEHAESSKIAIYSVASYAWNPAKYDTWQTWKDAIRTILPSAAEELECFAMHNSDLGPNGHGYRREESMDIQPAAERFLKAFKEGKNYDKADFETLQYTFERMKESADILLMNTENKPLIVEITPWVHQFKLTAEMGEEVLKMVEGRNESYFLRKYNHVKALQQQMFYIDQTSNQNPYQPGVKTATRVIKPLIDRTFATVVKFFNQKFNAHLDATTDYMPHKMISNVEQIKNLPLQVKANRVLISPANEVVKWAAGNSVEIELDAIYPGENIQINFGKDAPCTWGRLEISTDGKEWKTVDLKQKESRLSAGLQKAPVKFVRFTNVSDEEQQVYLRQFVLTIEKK
Method: AC50 measurements of fragment activators were performed using a fluorescent kinetic assay. Assays were carried out in a 96 well plate (Black Nunc F96 MicroWell Plates) at 25°C in a total volume of 100 μl per well, buffer (50 mM MES pH 6.5, 200 mM NaCl, 0.01% Tween-20, 1% DMSO) with 500 μM 4-methylumbelliferyl-β-D-GlcNAc (4MU-GlcNAc), as substrate and 50 nM BtGH84. Reactions were initiated by addition of 10 μl of substrate, to a final concentration of 500 μM, followed by 5 s of shaking. Fluorescent 4-methylumbelliferyl release was recorded continuously at 355 nm excitation and 460 nm emission for 20 s using a BMG PolarStar Optima plate reader. Rates were calculated using Sigmaplot as the slope of the curve of the collected data. Corrections were made to the detected gradients to adjust for the inner filter effect of 4MU-GlcNAc and convert the gradients into units of μmol min-1 according to a standard curve of 4MU. […]
Kinetic experiments using 4MU-GlcNAc were carried out in an analogous manner except that reactions were initiated by a 10 μl injection of BtGH84, to a final concentration of 50 nM, in a well containing the substrate at the desired concentration. Values quoted throughout are mean and standard deviation of three independent […]
Apparent KM and Vmax values were calculated from a Michalis-Menten curve fit to 8-10 point substrate titrations at a constant concentration of the activator. The covariation experiments used the same range of substrate concentrations across an activator concentration range of 50 µM to 2 mM. The data obtained from these experiments was fit to the nonessential activator equation: […]
Here, [S] is the concentration of the […], [A] the concentration of the activator, α modifies KM, β modifies Vmax and KA is the half-max concentration of the activator. […]

BtGH84 [2] = target: T1, BtGH84; experiment: STD NMR competition between activators; assay type: binding; conditions: in the presence of 2 (25 mM) as competitor
Method: (§1) Compounds in the fragment library were purchased from Specs, additional structural neighbours were purchased from Specs and Enamine. O-(2-Acetamido-2-deoxy-D-glucopyranosylidene) amino-Z-N-phenylcarbamate (PUGNAc) was purchased from Tocris Bioscience.
(§2) The fragment library was assembled as described by Schulz et al.[1] and dissolved in DMSO-d6 to a concentration of 200 mM and quality controlled using 1H NMR spectroscopy. Instant JChem 5.3.8, 2010, ChemAxon (http://www.chemaxon.com), was used for structure database management.
(§3) NMR spectroscopy and fragment screening
(§4) NMR experiments were carried out on a Bruker Avance II 700 MHz NMR spectrometer equipped with a triple resonance probe and z axis gradients. Data were processed using Topspin 3.2 software. Three NMR experiments were used for the screening, STD NMR,[2] PO-WaterLOGSY,[3] and T1ρ-filtered[4] 1H NMR experiments. All NMR screening data were collected at 288K and the samples contained 20 μM BtGH84, fragments at a concentration of approximately 200 μM per compound and 20 μM of TSP in 25 mM phosphate buffer containing 150 mM NaCl and 10% D2O at pH 7.4. […] The experiments were recorded using the standard STD NMR pulse sequence with a 15 ms 6 kHz spin-lock pulse to reduce the background protein resonances and excitation sculpting to suppress the water resonance. […]

BtGH84 [3] = target: T1, BtGH84; experiment: Affinity by NMR spectroscopy using proton relaxation rates R2; assay type: binding
Method: as §1, §2, §3
as §4, with “experiments.” for “experiments. All NMR screening data were collected at 288K and the samples contained 20 μM BtGH84, fragments at a concentration of approximately 200 μM per compound and 20 μM of TSP in 25 mM phosphate buffer containing 150 mM NaCl and 10% D2O at pH 7.4.”
Figure S3. Dissociation constant of 2 for BtGH84 determined in the presence of PUGNAc with 1H R2 relaxation rates. […]

[4] = system: β-N-Acetylglucosaminidase from Canavalia ensiformis (Jack bean); experiment: 4MU-GlcNAc substrate titration with commercially available β-N-acetylglucosaminidase; assay type: biochemical; conditions: 4MU-GlcNAc substrate titration at pH 4.9 and pH 6.5
Description: Figure S8: Effect of activators 2 and 4 on a β-N-Acetylglucosaminidase from Canavalia ensiformis (Jack
(B) titration at the same pH as used for the BtGH84 studies (pH 6.5).
Enzyme supplied by Sigma (purified from native source).
(1 picture or pasted object on this page, not shown here)

Aqueous solubility = assay type: physicochemical
[5] = titration of activator from 50 μM to 2 mM, substrate concentration 500 μM

Row | SMILES | Vmax(app) (BtGH84 [1]) | Kd (BtGH84 [1]; covariation experiments) | βkcat (BtGH84 [1]; covariation experiments) | Vmax (BtGH84 [1]) | α (BtGH84 [1]) | β (BtGH84 [1]) | AC50 (BtGH84 [1]; [5]) | Emax (BtGH84 [1]; [5]) | saturation transfer (STD NMR signal) from BtGH84 to activator (BtGH84 [2]) | AC50 (BtGH84 [1]; activation, 4MU-GlcNAc substrate concentration 500 μM) | affinity for BtGH84 (BtGH84 [3]; in the absence of PUGNAc, compared with presence of PUGNAc) | Kd (BtGH84 [3]; in the presence of PUGNAc (200 μM), 8 μM BtGH84, 298 K) | activation of β-N-acetylglucosaminidase [4] | aqueous solubility (Aqueous solubility; compared to the original activator 2) | highest concentration attainable at 1% DMSO (Aqueous solubility; enzyme assay buffer, 1% DMSO) | enhancement of substrate binding in the presence of the activator (BtGH84 [1]; from α, covariation experiments) | increase of kcat in the presence of the activator (BtGH84 [1]; from β, covariation experiments)
1 | CCc1cc2c(N3CCOCC3)ncnc2s1 [Compound 5] | 0.024 ± 0.001 µmol/min | ~200 µM and 205 µM | 75.8 s⁻¹ | 0.018 ± 0.0008 µmol/min | 0.17 ± 0.02 | 1.3 ± 0.07 | 274 ± 12 µM | 329% | clear loss in signal intensity | – | – | – | – | – | – | – | –
2 | CCOc1ncnc2ccccc12 [Compound 2, 4-ethoxyquinazoline] | – | – | – | – | – | – | – | – | – | 3500 µM and ~3500 µM | weaker | 3100 ± 700 µM | do not increase the activity | – | – | – | –
3 | CCOc1ncnc2sc(C)c(C)c12 [Compound 3] | 0.022 ± 0.001 µmol/min | 1090 µM | 88.7 s⁻¹ | 0.019 ± 0.0007 µmol/min | 0.061 ± 0.04 | 1.4 ± 0.1 | 575 ± 78 µM | 284% | – | – | – | – | – | poor | 2 mM | – | –
4 | Cc1sc2ncnc(N3CCOCC3)c2c1C [Compound 4] | 0.026 ± 0.002 µmol/min | ~200 µM and 224 µM | 100 s⁻¹ | 0.018 ± 0.002 µmol/min | 0.14 and 0.14 ± 0.02 | 1.7 and 1.7 ± 0.1 | 259 ± 24 µM | 371% | significantly diminished | – | – | – | do not increase the activity | – | – | ~7 fold | 1.7 fold
5 | c1nc(N2CCOCC2)c2ccsc2n1 [Compound 6] | 0.015 ± 0.002 µmol/min | – | – | – | – | – | 702 ± 85 µM | 234% | – | – | – | – | – | – | – | – | –
